Values quoted from earlier work in patent publication US5773415A, “Use of des-aspartate-angiotensin I as an anti-cardiac hypertrophic agent” (National University of Singapore, priority 1995, dated 1998).

tested on: specific aminopeptidase; details: homogenates of rat aorta and hypothalamus

Row | Inhibition of the aminopeptidase degrading angiotensin I to des-Aspartate-angiotensin I | Compound
1 | not inhibited | CC(C)C[C@@H](N)[C@H](O)C(=O)N[C@H](C(=O)N[C@H](C(=O)N[C@@H](CC(=O)O)C(=O)O)C(C)C)C(C)C [amastatin]
2 | not inhibited | O=C(O)CN(CCN(CC(=O)O)CC(=O)O)CC(=O)O [EDTA]
3 | not inhibited | CC(C)C[C@H](NC(=O)[C@@H](O)[C@H](N)Cc1ccccc1)C(=O)O [bestatin]
